#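 Test compounds were applied to cells in 96-well plates for 48 hours at 5 doses. Here, GI50 denotes the concentration required for 50% inhibition of growth.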 Calls of active or inactive are those of the source. Rule as the data show it: active = GI50 up to about 1.1 µM and inactive = higher.
# Experiments:
# Assay in all cases: inhibition of tumour cell growth, NCI panel, 48 h
# K562 = test system: K562
# IGROV-1 = test system: IGROV-1
# PC-3 = test system: PC-3
# NCI/ADR-RES = test system: NCI/ADR-RES
# OVCAR-3 = test system: OVCAR-3
# U-251 = test system: U-251
# HOP-62 = test system: HOP-62
# RXF 393 = test system: RXF 393
# NCI-H522 = test system: NCI-H522
# SK-MEL-28 = test system: SK-MEL-28
# ACHN = test system: ACHN
# RPMI-8226 = test system: RPMI-8226
# SK-MEL-2 = test system: SK-MEL-2
# COLO 205 = test system: COLO 205
# HL-60 = test system: HL-60
# KM12 = test system: KM12
# T47D = test system: T47D
# SN12C = test system: SN12C
# HOP-92 = test system: HOP-92
# SR = test system: SR
# HCT-15 = test system: HCT-15
# HT-29 = test system: HT-29
# SF-539 = test system: SF-539
# NCI-H460 = test system: NCI-H460
# CAKI-1 = test system: CAKI-1
# HCC 2998 = test system: HCC 2998
# 786-0 = test system: 786-0
# SF-268 = test system: SF-268
# UO-31 = test system: UO-31
# LOX IMVI = test system: LOX IMVI
# NCI-H23 = test system: NCI-H23
# MCF7 = test system: MCF7
# MDA-MB-231 = test system: MDA-MB-231
# SK-OV-3 = test system: SK-OV-3
# SK-MEL-5 = test system: SK-MEL-5
# DU-145 = test system: DU-145
# MDA-N = test system: MDA-N
# OVCAR-4 = test system: OVCAR-4
# TK-10 = test system: TK-10
# UACC-257 = test system: UACC-257
# NCI-H226 = test system: NCI-H226
# SNB-19 = test system: SNB-19
# SF-295 = test system: SF-295
# A549 = test system: A549
# MOLT-4 = test system: MOLT-4
# SW-620 = test system: SW-620
# OVCAR-8 = test system: OVCAR-8
# Hs-578T = test system: Hs-578T
# MDA-MB-435 = test system: MDA-MB-435
# EKVX = test system: EKVX
# OVCAR-5 = test system: OVCAR-5
# UACC-62 = test system: UACC-62
# Malme-3M = test system: Malme-3M
# A498 = test system: A498
# HCT-116 = test system: HCT-116
# M14 = test system: M14
# SNB-75 = test system: SNB-75
# CCRF-CEM = test system: CCRF-CEM
smiles,measurement,setting,value
C=C1CCCCCCCCC/C=C/1SCCCSC,GI50,K562,> 100 µM (inactive)
same,GI50,IGROV-1,> 100 µM (inactive)
same,GI50,PC-3,> 100 µM (inactive)
same,GI50,NCI/ADR-RES,> 100 µM (inactive)
same,GI50,OVCAR-3,> 100 µM (inactive)
same,GI50,U-251,> 100 µM (inactive)
same,GI50,HOP-62,> 100 µM (inactive)
same,GI50,RXF 393,> 100 µM (inactive)
same,GI50,NCI-H522,> 100 µM (inactive)
same,GI50,SK-MEL-28,> 100 µM (inactive)
same,GI50,ACHN,> 100 µM (inactive)
same,GI50,RPMI-8226,> 100 µM (inactive)
same,GI50,SK-MEL-2,> 100 µM (inactive)
same,GI50,COLO 205,> 100 µM (inactive)
same,GI50,HL-60,> 100 µM (inactive)
same,GI50,KM12,> 100 µM (inactive)
same,GI50,T47D,> 100 µM (inactive)
same,GI50,SN12C,> 100 µM (inactive)
same,GI50,HOP-92,> 100 µM (inactive)
same,GI50,SR,> 100 µM (inactive)
same,GI50,HCT-15,> 100 µM
same,GI50,HT-29,> 100 µM (inactive)
same,GI50,SF-539,> 100 µM (inactive)
same,GI50,NCI-H460,> 100 µM (inactive)
same,GI50,CAKI-1,> 100 µM (inactive)
same,GI50,HCC 2998,> 100 µM (inactive)
same,GI50,786-0,> 100 µM (inactive)
same,GI50,SF-268,> 100 µM (inactive)
same,GI50,UO-31,> 100 µM (inactive)
same,GI50,LOX IMVI,> 100 µM (inactive)
same,GI50,NCI-H23,> 100 µM (inactive)
same,GI50,MCF7,> 100 µM (inactive)
same,GI50,MDA-MB-231,> 100 µM (inactive)
same,GI50,SK-OV-3,> 100 µM (inactive)
same,GI50,SK-MEL-5,> 100 µM (inactive)
same,GI50,DU-145,> 100 µM (inactive)
same,GI50,MDA-N,> 100 µM (inactive)
same,GI50,OVCAR-4,> 100 µM (inactive)
same,GI50,TK-10,> 100 µM (inactive)
same,GI50,UACC-257,> 100 µM (inactive)
same,GI50,NCI-H226,> 100 µM (inactive)
same,GI50,SNB-19,> 100 µM (inactive)
same,GI50,SF-295,> 100 µM (inactive)
same,GI50,A549,> 100 µM (inactive)
same,GI50,MOLT-4,> 100 µM (inactive)
same,GI50,SW-620,> 100 µM (inactive)
same,GI50,OVCAR-8,> 100 µM (inactive)
same,GI50,Hs-578T,> 100 µM (inactive)
same,GI50,MDA-MB-435,> 100 µM (inactive)
same,GI50,EKVX,> 100 µM (inactive)
same,GI50,OVCAR-5,> 100 µM (inactive)
same,GI50,UACC-62,> 100 µM (inactive)
same,GI50,Malme-3M,> 100 µM (inactive)
same,GI50,A498,> 100 µM (inactive)
same,GI50,HCT-116,> 100 µM (inactive)
same,GI50,M14,> 100 µM (inactive)
CCCCCCCCCCCCCCCCNc1nc(=O)n(C2CC(O)C(COP(=O)(O)OC3CC(n4cc(F)c(=O)[nH]c4=O)OC3CO)O2)cc1F (configuration not stated),GI50,K562,1.41 µM (inactive)
same,GI50,IGROV-1,1.95 µM (inactive)
same,GI50,PC-3,6.35 µM (inactive)
same,GI50,NCI/ADR-RES,0.634 µM (active)
same,GI50,OVCAR-3,10 µM (inactive)
same,GI50,U-251,1.66 µM (inactive)
same,GI50,HOP-62,< 0.0296 µM (active)
same,GI50,RXF 393,6.97 µM (inactive)
same,GI50,NCI-H522,8.75 µM (inactive)
same,GI50,SK-MEL-28,14.2 µM (inactive)
same,GI50,ACHN,0.0234 µM (active)
same,GI50,RPMI-8226,0.0822 µM (active)
same,GI50,SK-MEL-2,30.1 µM (inactive)
same,GI50,COLO 205,10.9 µM (inactive)
same,GI50,HL-60,0.328 µM (active)
same,GI50,KM12,20.7 µM (inactive)
same,GI50,T47D,6.68 µM (inactive)
same,GI50,SN12C,0.264 µM (active)
same,GI50,HOP-92,4.38 µM (inactive)
same,GI50,SR,< 0.0243 µM (active)
same,GI50,HCT-15,3.18 µM
same,GI50,HT-29,1.87 µM (inactive)
same,GI50,SF-539,< 0.0108 µM (active)
same,GI50,CAKI-1,0.258 µM (active)
same,GI50,HCC 2998,< 0.01 µM (active)
same,GI50,SNB-75,4.98 µM (inactive)
same,GI50,786-0,0.416 µM (active)
same,GI50,SF-268,< 0.0218 µM (active)
same,GI50,UO-31,0.257 µM (active)
same,GI50,LOX IMVI,0.0637 µM (active)
same,GI50,NCI-H23,0.44 µM (active)
same,GI50,MCF7,< 0.01 µM (active)
same,GI50,MDA-MB-231,28.4 µM (inactive)
same,GI50,SK-OV-3,11.6 µM (inactive)
same,GI50,SK-MEL-5,0.571 µM (active)
same,GI50,DU-145,0.222 µM (active)
same,GI50,MDA-N,19.4 µM (inactive)
same,GI50,OVCAR-4,92.3 µM (inactive)
same,GI50,TK-10,25.7 µM (inactive)
same,GI50,UACC-257,12.8 µM (inactive)
same,GI50,NCI-H226,9.51 µM (inactive)
same,GI50,SNB-19,0.27 µM (active)
same,GI50,CCRF-CEM,< 0.0122 µM (active)
same,GI50,A549,0.0333 µM (active)
same,GI50,MOLT-4,1.95 µM (inactive)
same,GI50,SW-620,32.1 µM (inactive)
same,GI50,OVCAR-8,0.296 µM (active)
same,GI50,Hs-578T,15.6 µM (inactive)
same,GI50,MDA-MB-435,13.1 µM (inactive)
same,GI50,EKVX,26.4 µM (inactive)
same,GI50,OVCAR-5,29.7 µM (inactive)
same,GI50,UACC-62,0.337 µM (active)
same,GI50,Malme-3M,12.1 µM (inactive)
same,GI50,A498,0.09 µM (active)
same,GI50,HCT-116,0.504 µM (active)
same,GI50,M14,0.687 µM (active)

# Reference: ChEMBL document CHEMBL1201862, “PubChem BioAssay data set” (2004)
